Reference: patent publication US8415364B2, “Method of preventing or treating glaucoma” (Duke University, priority 2003, dated 2013)

Tests used:
[1] = tested on: Porcine primary trabecular meshwork (PTM) cells; experiment: Actin stress fibers (phalloidin) and focal adhesion (vinculin) immunofluorescence staining in PTM cells; type: cell-based
Procedure: (§1) Porcine primary trabecular meshwork (PTM) and ciliary muscle cells (PCM) were cultured and treated with lovastatin or compactin at concentrations of 25 μM and 50 μM. Effects on actin stress fibers (phalloidin staining) and focal adhesion formation (vinculin) were evaluated by immunofluorescence staining. Urea/glycerol polyacrylamide gel electrophoresis and Western blot analysis were utilized to investigate the effects of statins on myosin light chain (MLC) phosphorylation. Changes in cell shape were recorded using the phase contrast microscope. A constant flow organ culture perfusion system was used to measure outflow facility in perfused porcine eye anterior segments.

[2] = tested on: Porcine primary trabecular meshwork (PTM) cells; experiment: Cell shape by phase contrast microscopy in PTM cells; type: cell-based
Procedure: as §1

[3] = tested on: myosin light chain (MLC) phosphorylation; experiment: MLC phosphorylation by urea/glycerol PAGE and Western blot in PTM cells; type: cell-based, porcine
Procedure: as §1

[4] = tested on: perfused porcine eye anterior segments; experiment: Constant flow organ culture perfusion of porcine eye anterior segments
Procedure: as §1

[5] = PTM cells, within 24 hours of drug administration

| SMILES | effect on lovastatin-induced changes in cell shape and cytoskeletal organization ([1]; supplementation of cell culture media containing lovastatin) | changes in cell shape ([2]; 25 μM and 50 μM) | reversibility of morphological changes ([2]; upon drug withdrawal) | effect on actin stress fibers [1, 5] | effect on focal adhesions [1, 5] | MLC phosphorylation [3] | drop in intraocular pressure ([4]; 100 μM, at 72 hours, control eyes 22% reduction, ongoing study) [%] | ability to decrease IOP ([4]; organ culture perfusion model) |
| --- | --- | --- | --- | --- | --- | --- | --- | --- |
| CC(C)=CCC/C(C)=C/CC/C(C)=C/CC/C(C)=C/COP(=O)(O)OP(=O)(O)O [geranylgeranyl pyrophosphate] | completely reversed |  |  |  |  |  |  |  |
| CC[C@H](C)C(=O)O[C@H]1C[C@@H](C)C=C2C=C[C@H](C)[C@H](CC[C@@H]3C[C@@H](O)CC(=O)O3)[C@H]21 [lovastatin] |  | dramatic changes in cell shape | reversible upon drug withdrawal | actin depolymerization | loss of focal adhesions | marked reduction | 48 | ability to decrease IOP |
